Consider 34 molecules from PubChem BioAssay AID588530 (Broad Institute, 2011).

Calls of active or inactive are those of the source.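 The calls were made as follows: active = Alamar Blue signal falls with dose, AC50 no more than twice the top valid dose; inconclusive = flat curve near half-strength inhibition, or poor fit; inactive = the rest.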

System in one assay: not listed separately
The assay can be described thus: antifungal potency against resistant Candida albicans – CaCi-17 isolate, Alamar Blue, cherry-pick retest, confirmation (AID 588530). To be noted: C. albicans CaCi-17 growth, Alamar Blue fluorescence, 48 h; at 26 µM (top of the series). A general note: The colour change of resazurin is a common sign of viable cells or microbes.
As to `Cc1ccc(C(=O)c2coc3c2C(=O)C(=O)c2ccccc2-3)cc1`, the activity change, negative = inhibition is 7.03% (inactive). As for `O=[N+]([O-])c1ccc(O)c(/C=N/Nc2ccc(Cl)nn2)c1`, the activity change, negative = inhibition was -23.4% (inactive).

For a further assay, the system named is C. albicans CaCi-17 growth, Alamar Blue fluorescence, 48 h. The assay is described as above.
Details: not given
`O=C(N/N=C/c1c(O)ccc2ccccc12)c1cccc(C(F)(F)F)c1`: the AC50 is > 52 µM (inactive). `CCOC(=O)N1C(=O)C2(CCCCC2)N(c2ccc(C)cc2)C1=S`: the AC50 was 1.3 µM. Take `O=[N+]([O-])c1cc(CN2CCN(c3ccccc3)CC2)c(O)c2ncccc12`: the AC50 was 10.6 µM.

With `CCOc1ccc(N=Nc2ccc(O)c3ncccc23)cc1`, the AC50 is 11.6 µM.

As to `CCN(CC)S(=O)(=O)c1cc(OC)ccc1N=Nc1ccc(O)c2ncccc12`, the AC50 was 15.3 µM. On the same count and under the same terms, in the case of `CN1CCN(C(c2ccc(C(F)(F)F)cc2)c2cc(Cl)c3cccnc3c2O)CC1` (centres undefined) it was 6.34 µM; in that of `Oc1c(CN2CCN(c3ccccc3)CC2)cc(Br)c2cccnc12`, > 52 µM (inactive); in that of `O=C(N/N=C/c1cc2c3c(c1O)CCCN3CCC2)c1ccccc1O`, 4.28 µM. On the same count and under the same terms, as for `Oc1c(C(c2ccc(Cl)cc2)N2CCCC2)cc(Cl)c2cccnc12` (centres undefined), the figure is 7.68 µM; as for `O=Nc1c(-c2cccc([N+](=O)[O-])c2)nc2ncccn12`, 4.77 µM; as for `CCN1/C(=C/C=C/c2oc3ccc(-c4ccccc4)cc3[n+]2CC)Oc2ccc(-c3ccccc3)cc21`, 2.43 µM.

Regarding `Oc1c(C(Nc2nccs2)c2ccc(C(F)(F)F)cc2)ccc2cccnc12` (centres undefined), the AC50 is 4.11 µM. On the same count and under the same terms, in the case of `O=C(Oc1c(Cl)cc(Cl)c2cccnc12)c1cccs1` it was 3.29 µM; in that of `CN1CCN(C(c2ccc(C(F)(F)F)cc2)c2ccc3cccnc3c2O)CC1` (centres undefined), 8.86 µM. Same read-out and setting: in the case of `Cc1cc(NC(c2ccc(Cl)cc2)c2ccc3cccnc3c2O)no1` (centres undefined) it was 2.49 µM; in that of `Oc1ccc(N=Nc2ccc3c(c2)OCCO3)c2ncccc12`, > 52 µM (inactive). Same read-out and setting: as for `C=CCNC(=S)N/N=C(\C)c1ccccn1`, the figure is 8.96 µM; as for `CCCCC(=O)NC(c1ccco1)c1cc(Cl)c2cccnc2c1O` (centres undefined), 24.9 µM; as for `CCCCC(=O)NC(c1ccc(N(CC)CC)cc1)c1ccc2cccnc2c1O` (centres undefined), 3.73 µM. As for `C/C(=N\NC(=O)c1cc2ccccc2cc1O)c1ccccn1`, the AC50 is 5.02 µM. The same measure, in the same setting: in the case of `Oc1ccc(N=Nc2ccc3c(c2)OCCO3)c2cccnc12` it was 10.8 µM; in that of `Oc1c(C(Nc2nc3ccccc3s2)c2ccco2)ccc2cccnc12` (centres undefined), 3.97 µM. Same read-out and setting: in the case of `COc1ccc(C)cc1N=Nc1ccc(O)c2ncccc12` it was 2.99 µM. On the same count and under the same terms, as for `CCCCCCC[n+]1ccc(-c2cc[n+](CCCCCCC)cc2)cc1`, the figure is 13.4 µM; as for `COc1cccc(N=Nc2ccc3cccnc3c2O)c1`, 5.37 µM; as for `O=Cc1ccc(O)c2ncccc12`, 13.7 µM. Regarding `O=c1ccc(N=Nc2ccccc2)ccc1O`, the concentration at half-maximal activity (AC50) is 4.73 µM. The same measure, in the same setting: in the case of `O=C(Oc1c(Cl)cc(Cl)c2cccnc12)c1ccco1` it was 1.71 µM. With `COc1cccc(/C=N/Nc2ncnc3scc(-c4ccccc4)c23)c1O`, the concentration at half-maximal activity (AC50) is 12.5 µM. The same measure, in the same setting: in the case of `COc1cccc(N=Nc2ccc(O)c3ncccc23)c1` it was 3.91 µM. Still for that read-out and setting: as for `Oc1c(CN2CCN(c3ccc(F)cc3)CC2)cc(Cl)c2cccnc12`, the figure is 7.42 µM. As for `C(C#CCCCCCCCCC[n+]1ccccc1)#CCCCCCCCCC[n+]1ccccc1`, the half-maximal activity concentration (AC50) is 1.52 µM.

A word on the AC50: it is the concentration giving half of the maximal activity seen.
